A word on the IC50: it is the concentration that inhibits the measured activity by half.

In brackets after ≈: the same amount, converted by molar mass.

We go through three compounds from patent US20140243401A1, “METHODS OF SCREENING COMPOUNDS THAT ARE CYTOTOXIC TO TUMOR CELLS AND METHODS OF TREATING TUMOR CELLS USING SUCH COMPOUND” (The Johns Hopkins University, priority 2010, published 2014).

The test system of assay [1] is SKOV3 human ovarian cancer cells. As to the kind of experiment: JC-1 staining, mitochondrial membrane potential in SKOV3 cells. The assay is classed as cell-based. The conditions noted are these: SKOV3, drug in DMSO applied 30 min prior to staining. From the text:
JC-1 staining is an indicator of mitochondrial membrane potential; with this assay, mitochondria within cells stained with this fluorescent dye emit a wavelength in the red spectrum when mitochondrial membrane potential is intact. When mitochondria are depolarized, the wavelength of the spectrum emitted changes to green. Therefore, the ratio of red/green fluorescence will give an indication of the intactness of the membrane potential of mitochondria, and thus mitochondrial function.
The left panels show granular red-staining indicating mitochondria with intact membrane potential is brightest in control, and decreases with increasing concentrations of C31. Conversely, the right panels show the diffuse cytoplasmic green-staining which indicates mitochondrial depolarization, is dimmest in control and brightest at the highest concentration of C31 tested. Drug was solubilized in DMSO and applied for 30 min prior to staining.

The subject of assay [2] is MCF7 human breast cancer cells. As to the kind of experiment: XTT cytotoxicity assay, MCF7. The assay is classed as cell-based. The conditions noted are these: Homo sapiens, MCF7, XTT, MCF-7; for CC50: read-out: LC50 (the source's name). Here is the method: (§1) Cytotoxicity can be easily measured using XTT assays, which provide an indication of mitochondrial activity. The XTT assay is a non-radioactive alternative for the [^51Cr] release cytotoxicity assay. XTT is a tetrazolium salt that is reduced to a formazan dye only by metabolically active, viable cells. The reduction of XTT is measured spectrophotometrically as OD490-OD650. Thus, cells that are actively metabolizing will form reaction product when subjected to XTT measurement.
(§2) For this experiment, cells were cultured under standard culture conditions. MCF7 human breast cancer cells were cultured in DMEM containing 5 mM glucose medium with 10% fetal calf serum, 0.01 mg/ml insulin and 1% penicillin/streptomycin. To measure the cytotoxicity of specific compounds against cancer cells, 9×10^3 MCF7 cells were plated per well in 96-well plates. Following overnight culture, the compounds, dissolved in DMSO, were added to the wells in 1 μl volume at specified concentrations. Vehicle controls were run for each experiment. Each condition was run in triplicate. After 24 to 72 h of incubation, cells were incubated for 4 hours with the XTT reagent as per manufacturer's instructions (Cell Proliferation Kit II (XTT) Roche Diagnostics, New Jersey). Plates were read at OD490 on a PerkinElmer Victor 1420. Three wells containing the XTT reagent without cells served as the plate blank. XTT data were reported as OD490.
MCF7 human breast cancer cells were cultured in DMEM containing 1 mM or 5 mM glucose in the medium with 10% fetal calf serum, 0.01 mg/ml insulin and 1% penicillin/streptomycin. The cells were grown in two oxygen conditions, normoxia (21% 02) or hypoxia (1% 02). To measure the cytotoxicity of specific compounds against cancer cells, 9×10^3 MCF7 cells were plated per well in 96-well plates. Following overnight culture, the compounds, dissolved in DMSO, were added to the wells in 1 μl volume at specified concentrations. After 24 to 72 h of incubation, cells were incubated for 4 h with the XTT reagent as per manufacturer's instructions (Cell Proliferation Kit II (XTT) Roche Diagnostics, New Jersey). Plates were read at OD490 on a PerkinElmer Victor 1420. Three wells containing the XTT reagent without cells served as the plate blank. XTT data were reported as OD490Vehicle controls were run for each experiment. Each condition was run in triplicate.
In general terms: Tetrazolium dyes change colour on reduction, which living cells bring about.

Assay [3] relates to HCT116 human colon cancer xenograft. The assay is described as follows: tumor xenograft size, HCT116. The assay is classed as in vivo, Athymic Nude mice. The conditions noted are these: Study 101707, HCT-116, oral b.i.d. 16 days. The protocol:
Xenograft studies were performed using various mmFAS inhibitors disclosed herein. Human cancer xenograft studies are known in the art. (See Pizer et al., Cancer Res. 56:1189-1193, 1996; Pizer et al., Cancer Res. 60: 213-218, 2000; Testa et al., Oncogene 24: 7455-7464, 2005).
In particular, C31 mouse efficacy studies were conducted in order to evaluate anti-neoplastic activity of C31 in vivo. Athymic Nude mice were implanted with HCT116 human colon, SKOV3 human ovarian or OVCAR3 human ovarian cancer cell lines and were treated when the grown tumor xenografts reached at least 150 to 200 mm^3.^1 ^1 Compounds were solubilized in TEP (80% polyethylene glycol (PEG) 400, 10% ethanol, 10% tween-80) in a volume of 50 μL.

The test system of assay [4] is Human ovarian cancer (OVCAR). As to the kind of experiment: XTT cytotoxicity assay, OVCAR. It is filed as cell-based. To be noted: for CC50: read-out: LC50 (the source's name). The protocol:
(See, e.g., Rothman, S., J Clin. Pathol. 39: 672-676, 1986). For example, to measure the cytotoxicity of a test compound against cancer cells, cells (e.g., SKOV-3 cells or OVCAR-3) are plated in 96-well plates. Following overnight culture, the compound is added to the cells at specified concentrations. After 72 hours of incubation, cells are incubated for 4 hours with the XTT reagent as per manufacturer's instructions (Cell Proliferation Kit II (XTT) Roche Diagnostics, New Jersey), and the amount of color produced by viable cells is measured spectrophotometrically. […] is calculated by linear regression, plotting the color produced in treated cells as percent of control (untreated) cells versus drug concentrations.
as §1, §2

The subject of assay [5] is Human colon cancer (HCT116). As to the kind of experiment: XTT cytotoxicity assay, HCT116. The conditions noted are these: for IC50: HCT-116; for CC50: HCT-116, read-out: LC50 (the source's name). The assay is classed as cell-based.
For assay [6], the system named is MCF7 cells. As to the kind of experiment: 14C-acetate incorporation into lipids in MCF7 cells. It is filed as cell-based, human. The conditions noted are these: Homo sapiens; MCF7 cells, second experiment. The protocol:
MCF7 human breast cancer cells (a cell line which overexpresses FAS) were cultured in DMEM containing 5 mM glucose medium with 10% fetal calf serum, 0.01 mg/ml insulin and 1% penicillin/streptomycin. For measurement of fatty acid synthesis cells were cultured in 24-well plates at 5×10^4 per well and incubated overnight. Fatty acid synthesis was assayed by a 2 h pulse of [U^14C]acetate, 1 μCi/well, followed by Folch extraction and scintillation counting. Test compounds were added with the addition of drugs as described. Controls were treated with DMSO alone.
MCF7 human breast cancer cells were cultured in DMEM containing 1 mM or 5 mM glucose in the medium with 10% fetal calf serum, 0.01 mg/ml insulin and 1% penicillin/streptomycin. The cells were grown in two oxygen conditions, normoxia (21% 02) or hypoxia (1% 02). For measurement of fatty acid synthesis cells were cultured in 24-well plates at 5×10^4 per well and incubated overnight. Fatty acid synthesis was assayed by a 2 h pulse of [U^14C]acetate, 1 μCi/well, followed by Folch extraction and scintillation counting with the addition of drugs as described. Controls were treated with DMSO alone.

Assay [7] relates to mitochondrial FAS. The assay is described as follows: 14C-malonate incorporation into mitochondrial fatty acids, mitochondria isolated from rat liver. It is filed as biochemical. To be noted: FIG. 3. Here is the method:
Mammalian mitochondrial FAS activity may be determined in a variety of ways. For example, [14C]malonate may be added to isolated mitochondria, fatty acids are extracted, and then radioactivity is tested. (See Zhang et al., J. Bio. Chem. 278(41): 40067-40074, 2003; Mikolajczyk, J. and Brody, S., Eur. J. Biochem. 187: 431-437, 1990). The mitochondria are purified using methods known in the art. (See Qiagen's Qproteome Mitochondria Isolation Kit; Methods in Enzymology, Vol. 10, Chapter 11, 1967). To test the inhibition of mmFAS activity, a test compound is added to the reaction mixture. Therefore, a test compound may be screened according the methods described herein as follows: (i) isolating mitochondria; (ii) incubating mitochondria with [14C]malonate with and without a test compound; and (iii) determining the quantity of lipids and/or fatty acids produced. By comparing the amount of product in the presence of the test compound to the amount in its absence, the degree of inhibition can be determined.
Mitochondria from MCF7 cells were prepared following manufacturer's protocol (Mitochondria Isolation Kit, Sigma, Saint Louis, Mo.). Rat liver mitochondria were isolated by homogenization with a tissue homogenizer in H-medium (220 mM mannitol, 70 mM sucrose, 2 mM HEPES, and 0.5 g/L of fatty acid free bovine serum albumin, pH 7.4). The homogenate was centrifuged at 1100 g for 3 min and washed twice with H-medium. The supernatants were pooled and centrifuged at 6800 g for 15 min. The pellet was then rinsed again and centrifuged at 3000 g for 3 min. The mitochondria supernatants were saved. The sediments were resuspended in H-medium and centrifuged at 3000 g for 3 min. The mitochondria supernatants were combined and centrifuged at 20,000 g for 15 min. The resulting mitochondria pellet were rinsed and centrifuged again at 20,000 g for 20 min.
Isolated mitochondria (100-200 μg) were mixed with 50 mM TES-KOH (pH 7.2), 10 mM MgCl2, 0.3 M sorbitol, 0.1% BSA, 1 mM each of ATP, ADP, NADH, NADPH, CoA, DTT and 1 μCi of [2-^14C]malonic acid (50 mCi/mmol) in a total volume of 200 μl. The reaction was performed for 30 min at room temperature. C31, Riv7d or vehicle were added at the beginning of this reaction. At the end of 30 minutes, the mitochondria pellet was separated from supernatant by centrifugation at 14000 rpm for 5 min. After washing with 500 μl of 50 mM TES-KOH (pH 7.2) and 0.3 M sorbitol, the mitochondria were incubated in 200 μl of H2O and 20 μl of 10 M KOH for 15 min at 65° C. Then the samples were added with 40 μl of 5 M H2SO4 and 20 μl of 1 mM palmitic acid (in 1 M acetic acid in isopropanol). The ^14C labeled fatty acids were twice extracted with hexane and sent to scintillation counting after drying.

Regarding `CCCCCCCCC1(C)SC(=O)C=C1OCC(=O)Nc1ccc(C(F)(F)F)cc1` (centres unmarked) [Compound C144], in assay [1], the “mitochondrial depolarization (JC-1 staining)” value is on record as “depolarization of the mitochondria in the SKOV3 human ovarian cancer cells which is dose-dependent”. Also, the 50% inhibitory concentration (IC50) in assay [2] was 2.2 µg/mL (≈ 4.96 µM); in assay [4], 4 µg/mL (≈ 9.02 µM); in assay [5], 4.8 µg/mL (≈ 10.8 µM); in assay [6] it was more than 5.6 µM. Further, the values for the CC50 in assay [2], in assay [4] and in assay [5] were 4.9 µM, 9 µM and 10.8 µM, respectively. Moreover, the “Average Tumor Size Endpoint (% Change)” value in assay [3] (53 mg/kg) was −91 % Change.

On to `CCCCCCCCC1(C)SC(=O)C=C1OCC(=O)Nc1ccc(OC(F)(F)F)cc1` (centres unmarked) [Compound C145], for which the “mitochondrial depolarization (JC-1 staining)” value in assay [1] was “depolarization of the mitochondria in the SKOV3 human ovarian cancer cells which is dose-dependent”. Further, the IC50 came out at 1.8 µg/mL (≈ 3.92 µM) in assay [2], 3.3 µg/mL (≈ 7.18 µM) in assay [4], 3.5 µg/mL (≈ 7.62 µM) in assay [5] and 17.8 µM in assay [6]. Also, the CC50 in assay [2] was determined as 3.9 µM; in assay [4], 7.2 µM; in assay [5], 7.6 µM. Further, the “Average Tumor Size Endpoint (% Change)” value in assay [3] (55 mg/kg) is given as “+236 % Change”.

Turning to `Oc1cc(Cl)ccc1Oc1ccc(Cl)cc1Cl` [Triclosan, triclosan, reference compound], in assay [7] (isolated mitochondria), the “IC50, inhibition of mitochondrial FAS (14C-malonate incorporation)” value turned out to be 3 μg per mL. In addition, the “effect on 14C-malonate incorporation into mitochondrial fatty acids” value in assay [7] (mitochondria isolated from rat liver) is recorded as “inhibitory effect”.
